One assay relates to FSH. In words: Blood level of FSH after time-released leuprolide acetate device. It counts as in vivo, human. The procedure: (§1) For example, a 30 mg time-released dose of leuprolide acetate can be administered to an adult subject. The leuprolide acetate active agent is provided in a biodegradable polymer system to supply a polymeric device for controlled release of the active agent. […] The leuprolide acetate active agent is incorporated within the polymer system such that the polymer system provides for controlled release of the agent from the device. When the device is administered to the subject, for example, when it is implanted, the device releases the active agent in a controlled fashion without a lag period, or with a minimal lag period. In this manner, the leuprolide can be gradually released over a period of several months. After a period of two weeks, the subject's blood level of LH may be undetectable and the subject's blood level of FSH may be approximately 5 mIU/mL.
(§2) In another example, a dose of 1.88 mg time-released dose of leuprolide acetate can be administered to a subject. The leuprolide acetate active agent is provided in a biodegradable polymer system to supply a polymeric device for controlled release of the active agent. […] The leuprolide acetate active agent is incorporated within the polymer system such that the polymer system provides for controlled release of the agent from the device. […]

For a further assay, the system named is LH. Briefly: Blood level of LH after time-released leuprolide acetate device. In kind it is in vivo, human. Here is the method:
as §1, §2

Setting [1] is: 1.88 mg time-released dose in polymeric device, released over approximately one month.
Where [2] appears, read: 30 mg time-released dose in polymeric device, adult subject, after two weeks.

On to `CCNC(=O)[C@@H]1CCCN1C(=O)[C@H](CCCNC(=N)N)NC(=O)[C@H](CC(C)C)NC(=O)[C@@H](CC(C)C)NC(=O)[C@H](Cc1ccc(O)cc1)NC(=O)[C@H](CO)NC(=O)[C@H](Cc1c[nH]c2ccccc12)NC(=O)[C@H](Cc1c[nH]cn1)NC(=O)[C@@H]1CCC(=O)N1` [leuprolide acetate], for which the FSH blood levels entry in the assay on FSH (setting [1]) is “undetectable levels”. Moreover, the “blood level of FSH” value with FSH (setting [2]) is given as “approximately 5 mIU/mL”. For the same compound, the LH blood levels entry with LH (setting [1]) was “undetectable levels”. Moreover, the “blood level of LH” value with LH (setting [2]) is on record as “undetectable”.

(Values after patent US8647657B2, “Polymeric devices for controlled release of active agents” (Durect Corporation, priority 2003, dated 2014).)
